Assay results reported in patent US20240398947A1, “CAR T-CELL ADJUVANT THERAPIES” (CytoAgents, Inc., priority 2020, published 2024).

Key:
[1] = test system: normal human PBMC; assay: Cytokine release assay in stimulated normal human PBMC (Luminex multiplex); type: cell-based; conditions: for significant reduction of IL-1α / significant reduction of IL-1β: 5 donors
[2] = test system: normal human PBMC; assay: AlamarBlue cell viability of treated PBMC; type: cell-based; conditions: PBMC of Donors 1-5, 48 hours post stimulation, GP1681 750 μM
Protocol: Following pre-treatment, cells were stimulated with either LPS or Poly (I:C). Twenty-four to forty-eight hours post-stimulation supernatants were collected and tested both for viability (48 hours) as well as concentrations of 29 different cytokines (24 hours.). Viability assessments confirmed the lack of GP1681-associated cell cytotoxicity. Statistical comparisons in individual donor results were conducted between all test groups within each donor group (between individual stimulant-treatment pairs) to determine efficacy of stimulation as well as any potential GP1681 effects on cytokine production. Additionally, statistical analysis was performed on pooled donor data for each cytokine stimulant-treatment pair to comprehensively determine cytokine suppression effects of GP1681 for each cytokine.
After resting the cells, 100 μl of GP1681 was added to appropriate wells at a final dosing concentration of 750 μM. […] For cell stimulation, 20 μL of the 1.0 ng/ml LPS solution or the 250 μg/ml Poly (I:C) solution were added to appropriate wells according to the group designation. Twenty-four hours later 100 uL of supernatant were collected from all wells and stored for cytokine analysis. Approximately four hours before final harvest, AlamarBlue dye was added to all wells. At forty-eight hours post stimulation all samples were collected, and supernatants tested for cell viability. […]

[3] = test system: influenza (H1N1); type: in vivo, mice
[4] = test system: influenza (H5N1); conditions: in vivo influenza (H5N1), Gemmus Pharma studies; cited from earlier work
[5] = test system: CRS; assay: Mouse model of CAR T-cell therapy induced CRS (Raji-luc tumor); conditions: IP, BID for 7 days
[6] = LPS-stimulated PBMC, 24 h supernatant, DEX 1 μM, GP1681 750 μM
[7] = Poly(I:C)-stimulated PBMC, 24 h supernatant, DEX 1 μM, GP1681 750 μM
[8] = in vivo influenza (H1N1), current CytoAgents studies

CC#CC[C@H](C)[C@H](O)/C=C/[C@@H]1[C@H]2c3cccc(CCCC(=O)[O-])c3O[C@H]2C[C@H]1O.[Na+] [GP1681, esuberaprost sodium salt]
approximately 25: number of different cytokines whose production is down regulated ([1]; data from Gemmus Pharma, Inc studies and the present work together)
significantly suppressed: IL-8 production suppressed by treatment ([3]; mouse, in vivo)
YES: significant reduction of IL-1α [1, 6] | significant reduction of IL-1β [1, 6] | significant reduction of CCL2 (MCP-1) [1, 6] | significant reduction of CCL3 (MIP1 α) [1, 6] | significant reduction of CCL5 (RANTES) [1, 6] | significant reduction of CXCL9 (MIG) [1, 6] | significant reduction of CXCL10 (IP-10) [1, 6] | significant reduction of FGF [1, 6] | significant reduction of GM-CSF [1, 6] | significant reduction of IFN-α2 [1, 6] | significant reduction of IFN-γ [1, 6] | significant reduction of IL-4 [1, 6] | significant reduction of IL-5 [1, 6] | significant reduction of IL-9 [1, 6] | significant reduction of IL-12 [1, 6] | significant reduction of IL-13 [1, 6] | significant reduction of IL-15 [1, 6] | significant reduction of IL-17 [1, 6] | significant reduction of IL-18 [1, 6] | significant reduction of PDGF [1, 6] | significant reduction of TNF α [1, 6] | significant reduction of IL-1α [1, 7] | significant reduction of IL-1β [1, 7] | significant reduction of CCL2 (MCP-1) [1, 7] | significant reduction of CCL5 (RANTES) [1, 7] | significant reduction of CXCL9 (MIG) [1, 7] | significant reduction of CXCL10 (IP-10) [1, 7] | significant reduction of IFN-α2 [1, 7] | significant reduction of IFN-γ [1, 7] | significant reduction of IL-4 [1, 7] | significant reduction of IL-5 [1, 7] | significant reduction of IL-12 [1, 7] | significant reduction of IL-13 [1, 7] | significant reduction of IL-15 [1, 7] | significant reduction of IL-18 [1, 7] | significant reduction of PDGF [1, 7] | significant reduction of TNF α [1, 7]
less than 2 fold: nominal reduction in the ex vivo production of IFNα ([1]; stimulated PBMC, statistically significant)
reduced: IL-2 reduced by treatment [3, 8] | IL-6 reduced by treatment [3, 8] | IL-10 reduced by treatment [3, 8] | IL-2 reduced by treatment [4] | IL-6 reduced by treatment [4] | IL-8 reduced by treatment [4] | IL-10 reduced by treatment [4]
no cytotoxicity: cytotoxicity (Alamar blue viability assessment) [2]
21: number of cytokines reduced of the 29 cytokines analyzed ([1]; LPS or Poly(I:C) stimulated PBMC, pooled and individual donor results)
superior to dexamethasone: cytokine production, comparison with dexamethasone [5]
no significant repression: repression of IFNα concentrations ([3]; mouse, in vivo)
greater survival benefits: survival benefits over dexamethasone [5]
